Measurements published in US5780431A, “Pharmaceutical formulations of corticotropin releasing factor having improved stability in liquid form” (Neurobiological Technologies, Inc., priority 1996, dated 1998).
Converted amounts (≈) assume the structure as drawn. “And” between values parts separate entries of the source, which are not always exact repeats. Equal entries are not always repeated. Where two headings read alike, the source gives them in different places.

What was measured:
[1] = Solubility of CRF in various buffer solutions; type: physicochemical; details: for solubility: read-out: CRF solubility (gross weight)
Description: (§1) In an effort to develop liquid formulations of CRF useful for commercial pharmaceutical purposes, experiments designed to measure the solubility of CRF in a variety of different buffer solutions were carried out. Specifically, CRF was added in increasing amounts to a variety of different buffer solutions at various different concentrations and pH's, either in the presence or absence of other excipient additives and the solubility of the CRF product was determined. Table 1 summarizes the results of these experiments measuring the solubility of CRF in various phosphate, citrate and acetate buffers, either in the presence or absence of various excipients such as NaCl and mannitol. CRF solubility is expressed in gross weight of CRF in mg/ml of solution.

[2] = Solubility of CRF in various non-volatile buffer solutions; type: physicochemical
Description: as §1
Next, because it is known that certain buffers may be volatilized when lyophilized, further experiments were conducted as described above to examine the solubility of CRF in various other non-volatile buffer solutions.

Q: Which “CRF solubility” value ([1]; acetate buffer between pH 4 and 5 without added NaCl) does the source give for `CC[C@H](C)[C@H](NC(=O)[C@@H](NC(=O)[C@H](CCC(=O)O)NC(=O)[C@H](CCSC)NC(=O)[C@H](CC(C)C)NC(=O)[C@H](CCCCN)NC(=O)[C@H](CCCNC(=N)N)NC(=O)[C@H](CC(N)=O)NC(=O)[C@H](CO)NC(=O)[C@H](Cc1c[nH]cn1)NC(=O)[C@H](C)NC(=O)[C@H](CCC(N)=O)NC(=O)[C@H](CCC(N)=O)NC(=O)[C@H](C)NC(=O)[C@H](CC(C)C)NC(=O)[C@H](CCC(N)=O)NC(=O)[C@H](CCC(=O)O)NC(=O)[C@H](C)NC(=O)[C@H](CCCNC(=N)N)NC(=O)[C@H](C)NC(=O)[C@H](CCSC)NC(=O)[C@H](CCC(=O)O)NC(=O)[C@H](CC(C)C)NC(=O)[C@@H](NC(=O)[C@H](CCC(=O)O)NC(=O)[C@H](CCCNC(=N)N)NC(=O)[C@H](CC(C)C)NC(=O)[C@H](CC(C)C)NC(=O)[C@H](Cc1c[nH]cn1)NC(=O)[C@H](Cc1ccccc1)NC(=O)[C@@H](NC(=O)[C@H](CC(C)C)NC(=O)[C@H](CC(=O)O)NC(=O)[C@H](CC(C)C)NC(=O)[C@H](CO)NC(=O)[C@@H](NC(=O)[C@@H]1CCCN1C(=O)[C@@H]1CCCN1C(=O)[C@H](CCC(=O)O)NC(=O)[C@H](CCC(=O)O)NC(=O)[C@@H](N)CO)[C@@H](C)CC)[C@@H](C)O)C(C)C)[C@@H](C)CC)C(N)=O` [CRF] here?
A: very soluble

Q: What about the CRF solubility ([1]; citrate buffer between pH 4 and 6) of the same molecule?
A: < 200 µg/mL

Q: And the solubility ([1]; citrate buffer, pH 4, aqueous buffer, pH 4.0, 25 mM Citrate, 150 mM NaCl)?
A: 20 µg/mL (≈ 4.2 µM)

Q: What about the solubility ([1]; citrate buffer, pH 4, aqueous buffer, pH 4.0, 25 mM Citrate) of the same molecule?
A: 40 µg/mL (≈ 8.41 µM)

Q: What about the solubility ([1]; citrate buffer, pH 5.1, aqueous buffer, pH 5.1, 25 mM Citrate, 150 mM NaCl) of the same molecule?
A: 10 µg/mL (≈ 2.1 µM)

Q: What about the solubility ([1]; citrate buffer, pH 5.1, aqueous buffer, pH 5.1, 25 mM Citrate) of the same molecule?
A: 20 µg/mL (≈ 4.2 µM)

Q: And the “CRF solubility (gross weight)” value ([1]; pH 2.0, 10 mM PO4, 138 mM NaCl)?
A: 50000 µg/mL

Q: And the “CRF solubility (gross weight)” value ([1]; pH 4.08, 5 mM Citrate)?
A: 200 µg/mL

Q: What about the “CRF solubility (gross weight)” value ([1]; pH 4.08, 5 mM Citrate, 150 mM NaCl) of the same molecule?
A: 160 µg/mL

Q: And the “CRF solubility (gross weight)” value ([1]; pH 4.2, 5 mM HOAC, 150 mM NaCl)?
A: 1170 µg/mL

Q: What about the “CRF solubility (gross weight)” value ([1]; pH 4.2, 25 mM HOAc) of the same molecule?
A: 29000 µg/mL

Q: What about the “CRF solubility (gross weight)” value ([1]; pH 4.26, 20 mM HOAc, 5% mannitol) of the same molecule?
A: 14500 µg/mL

Q: And the “CRF solubility (gross weight)” value ([1]; pH 4.34, 20 mM HOAc, 5% mannitol)?
A: 11200 µg/mL

Q: What about the “CRF solubility (gross weight)” value ([1]; pH 4.4, 5 mM HOAC) of the same molecule?
A: 33000 µg/mL

Q: And the “CRF solubility (gross weight)” value ([1]; pH 4.45, 20 mM HOAc, 5% mannitol)?
A: 13800 µg/mL

Q: What about the “CRF solubility (gross weight)” value ([1]; pH 4.49, 25 mM HOAc) of the same molecule?
A: 5340 µg/mL

Q: What about the “CRF solubility (gross weight)” value ([1]; pH 4.49, 25 mM HOAc, 150 mM NaCl) of the same molecule?
A: 280 µg/mL

Q: And the “CRF solubility (gross weight)” value ([1]; pH 4.52, 20 mM HOAc, 5% mannitol)?
A: 12500 µg/mL

Q: And the “CRF solubility (gross weight)” value ([1]; pH 4.6, 5 mM HOAC, 5% mannitol)?
A: 2200 µg/mL

Q: What about the “CRF solubility (gross weight)” value ([1]; pH 4.7, 5 mM HOAC, 1% mannitol) of the same molecule?
A: 1960 µg/mL

Q: What about the “CRF solubility (gross weight)” value ([1]; pH 4.72, 5 mM HOAC, 1% Tween) of the same molecule?
A: 1970 µg/mL

Q: What about the “CRF solubility (gross weight)” value ([1]; pH 4.73, 20 mM HOAc, 5% mannitol) of the same molecule?
A: 1530 µg/mL

Q: And the “CRF solubility (gross weight)” value ([1]; pH 4.81, 5 mM HOAC)?
A: 1130 µg/mL

Q: And the “CRF solubility (gross weight)” value ([1]; pH 4.9, 25 mM HOAc)?
A: 370 µg/mL

Q: And the “CRF solubility (gross weight)” value ([1]; pH 4.9, 25 mM HOAc, 150 mM NaCl)?
A: 140 µg/mL

Q: What about the “CRF solubility (gross weight)” value ([1]; pH 4.92, 5 mM Citrate) of the same molecule?
A: 30 µg/mL

Q: And the “CRF solubility (gross weight)” value ([1]; pH 4.92, 5 mM Citrate, 150 mM NaCl)?
A: 10 µg/mL

Q: And the “CRF solubility (gross weight)” value ([1]; pH 4.94, 20 mM HOAc, 5% mannitol)?
A: 70 µg/mL

Q: And the “CRF solubility (gross weight)” value ([1]; pH 5.0, 5 mM HOAC)?
A: 130 µg/mL

Q: And the “CRF solubility (gross weight)” value ([1]; pH 5.23, 20 mM HOAc, 5% mannitol)?
A: 40 µg/mL

Q: And the “CRF solubility (gross weight)” value ([1]; pH 5.84, 5 mM Citrate)?
A: 40 µg/mL

Q: And the “CRF solubility (gross weight)” value ([1]; pH 5.84, 5 mM Citrate, 150 mM NaCl)?
A: 20 µg/mL

Q: What about the “CRF solubility (gross weight)” value ([1]; pH 6.0, 5 mM HOAC) of the same molecule?
A: 30 µg/mL

Q: And the “CRF solubility (gross weight)” value ([1]; pH 6.1, 25 mM Citrate)?
A: 100 µg/mL

Q: What about the “CRF solubility (gross weight)” value ([1]; pH 6.1, 25 mM Citrate, 150 mM NaCl) of the same molecule?
A: 70 µg/mL

Q: And the “CRF solubility (gross weight)” value ([1]; pH 6.24, 25 mM HOAc)?
A: 90 µg/mL

Q: And the “CRF solubility (gross weight)” value ([1]; pH 6.24, 25 mM HOAc, 150 mM NaCl)?
A: 50 µg/mL

Q: What about the “CRF solubility (gross weight)” value ([1]; pH 7.1, 10 mM PO4, 138 mM NaCl) of the same molecule?
A: 480 µg/mL and 840 µg/mL

Q: And the “CRF solubility” value ([1]; phosphate buffer between pH 2 and 3.6)?
A: very soluble

Q: What about the solubility ([1]; phosphate buffer, pH 3.6, aqueous buffer, pH 3.6, 10 mM PO4, 138 mM NaCl) of the same molecule?
A: 2640 µg/mL (≈ 555 µM)

Q: What about the solubility ([1]; phosphate buffer, pH 4.2, aqueous buffer, pH 4.2, 10 mM PO4, 138 mM NaCl) of the same molecule?
A: 290 µg/mL (≈ 61 µM)

Q: And the solubility ([1]; phosphate buffer, pH 4.5, aqueous buffer, pH 4.5, 10 mM PO4, 138 mM NaCl)?
A: 620 µg/mL (≈ 130 µM)

Q: And the solubility ([1]; phosphate buffer, pH 5.6, aqueous buffer, pH 5.6, 10 mM PO4, 138 mM NaCl)?
A: 310 µg/mL (≈ 65.2 µM)

Q: And the solubility ([1]; phosphate buffer, pH 6.02, aqueous buffer, pH 6.02, 5 mM PO4)?
A: 80 µg/mL (≈ 16.8 µM)

Q: What about the solubility ([1]; phosphate buffer, pH 6.7, aqueous buffer, pH 6.7, 10 mM PO4, 138 mM NaCl) of the same molecule?
A: 520 µg/mL (≈ 109 µM)

Q: What about the solubility ([1]; phosphate buffer, pH 6.96, aqueous buffer, pH 6.96, 5 mM PO4) of the same molecule?
A: 470 µg/mL (≈ 98.8 µM)

Q: What about the solubility ([1]; phosphate buffer, pH 7.32, aqueous buffer, pH 7.32, 20 mM PO4) of the same molecule?
A: 1460 µg/mL (≈ 307 µM)

Q: What about the solubility ([1]; phosphate buffer, pH 7.7, aqueous buffer, pH 7.7, 5 mM PO4) of the same molecule?
A: 460 µg/mL (≈ 96.7 µM)

Q: What about the CRF solubility ([2]; 10 mM Phosphate, pH 7.3) of the same molecule?
A: 3.0 net mg/ml

Q: What about the CRF solubility ([2]; 10 mM Phosphate, pH 7.3 + 25 mM ascorbate) of the same molecule?
A: 1.2 net mg/ml

Q: And the CRF solubility ([2]; 10 mM Phosphate, pH 7.3 + 0.25% arginine)?
A: 2.0 net mg/ml

Q: What about the CRF solubility ([2]; 10 mM Phosphate, pH 7.3 + 0.25% glycine) of the same molecule?
A: 2.2 net mg/ml

Q: And the CRF solubility ([2]; 25 mM Ascorbic, pH 4.0)?
A: 4.5 net mg/ml

Q: And the CRF solubility ([2]; 25 mM Lactic, pH 4.0)?
A: 1.9 net mg/ml

Q: And the CRF solubility ([2]; 25 mM Succinic, pH 4.0)?
A: 4.2 net mg/ml

Q: And the CRF solubility ([2]; 25 mM Tartaric, pH 4.0)?
A: 0.2 net mg/ml

Q: And the “CRF solubility” value ([2]; ascorbic, lactic, succinic and phosphate buffers tested)?
A: extremely soluble
